From US9249145B2, “Heterocyclic derivatives of pyrazol-4-yl-pyrrolo[2,3-d]pyrimidines as janus kinase inhibitors” (Incyte Holdings Corporation, priority 2009, dated 2016) come the findings set out here.

Some results are limits rather than exact numbers.

The target in assay [1] is T1, human JAK1 (a.a. 837-1142) (Homo sapiens, UniProt P23458).
T1 construct: The catalytic domains of human JAK1 (a.a. 837-1142); His tag (N); made in house; host or cells: insect cells (baculovirus)
The assay is described as follows: In vitro JAK kinase assay (HTRF, phosphorylation of biotinylated peptide), JAK1. The assay is classed as biochemical. The note with it: 1 mM ATP; Examples 92-162; read-out: JAK1 IC50 (nM) @ 1 mM ATP. The procedure, abridged: (§1)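 His-tagged catalytic domains expressed in baculovirus/insect cells; biotinylated peptide (500 nM) phosphorylation in 50 mM Tris pH 7.8, 100 mM NaCl, 5 mM DTT, 0.01% BSA, 1 h room temperature. ATP at Km (JAK1 90 μM, JAK2 30 μM) or 1 mM. EDTA stop, Eu-Py20/SA-APC HTRF read; IC50.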

The target of a further assay is T2, Jak2 (a.a. 828-1132) (Homo sapiens, UniProt O60674).
T2 construct: Jak2 (a.a. 828-1132); His tag (N); made in house; host or cells: insect cells (baculovirus)
The assay is described as follows: In vitro JAK kinase assay (HTRF, phosphorylation of biotinylated peptide), JAK2. It counts as biochemical. The note with it: 1 mM ATP; Examples 92-162; read-out: JAK2 IC50 (nM) @ 1 mM ATP. The method, boiled down:
as §1
Background: In TR-FRET formats the signal depends on donor and acceptor labels being close together.

T1 sequence (P23458 849-1154): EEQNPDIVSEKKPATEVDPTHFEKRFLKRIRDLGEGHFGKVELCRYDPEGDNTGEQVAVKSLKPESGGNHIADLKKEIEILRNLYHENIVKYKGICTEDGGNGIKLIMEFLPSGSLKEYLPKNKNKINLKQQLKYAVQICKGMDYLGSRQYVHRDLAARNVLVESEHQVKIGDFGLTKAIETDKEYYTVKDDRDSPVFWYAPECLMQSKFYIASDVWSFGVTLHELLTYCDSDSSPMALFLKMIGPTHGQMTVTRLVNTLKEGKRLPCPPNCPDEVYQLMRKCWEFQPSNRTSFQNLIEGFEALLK
T2 sequence (O60674 828-1132): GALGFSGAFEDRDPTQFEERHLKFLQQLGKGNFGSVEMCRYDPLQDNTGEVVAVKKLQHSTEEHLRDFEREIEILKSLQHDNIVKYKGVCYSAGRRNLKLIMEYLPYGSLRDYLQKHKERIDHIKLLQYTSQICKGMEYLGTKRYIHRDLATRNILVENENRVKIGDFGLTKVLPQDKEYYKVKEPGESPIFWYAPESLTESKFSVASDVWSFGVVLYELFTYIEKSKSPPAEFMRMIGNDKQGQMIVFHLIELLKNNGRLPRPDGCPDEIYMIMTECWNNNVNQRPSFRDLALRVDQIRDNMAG

On to `N#CCC(C1CCN(c2cc(Oc3ccccc3)ncn2)CC1)n1cc(-c2ncnc3[nH]ccc23)cn1` (stereo not shown) [Example 151, 3-(4-(7H-pyrrolo[2,3-d]pyrimidin-4-yl)-1H-pyrazol-1-yl)-3-(1-(6-phenoxypyrimidin-4-yl)piperidin-4-yl)propanenitrile], for which the IC50 (usually the concentration needed to halve the response being measured) in assay [1] is less than 20 nM; on Jak2 (a.a. 828-1132), 50 to 100 nM.

Take `N#CCC(C1CCN(c2cc(Oc3cccc(F)c3)ncn2)CC1)n1cc(-c2ncnc3[nH]ccc23)cn1` (stereo not shown) [Example 152, 3-(4-(7H-pyrrolo[2,3-d]pyrimidin-4-yl)-1H-pyrazol-1-yl)-3-(1-(6-(3-fluorophenoxy)pyrimidin-4-yl)piperidin-4-yl)propanenitrile]: the IC50 in assay [1] was 20 to 50 nM; at Jak2 (a.a. 828-1132), less than 20 nM.

Consider `Cc1c(Nc2cccc(F)c2F)ncnc1N1CCC(C(CC#N)n2cc(-c3ncnc4[nH]ccc34)cn2)CC1` (stereo not shown) [Example 153, 3-(4-(7H-pyrrolo[2,3-d]pyrimidin-4-yl)-1H-pyrazol-1-yl)-3-(1-(6-(2,3-difluorophenylamino)-5-methylpyrimidin-4-yl)piperidin-4-yl)propanenitrile], for which the IC50 in assay [1] was 20 to 50 nM; at Jak2 (a.a. 828-1132) it was more than 100 nM.

For `Cc1c(Nc2c(F)cccc2F)ncnc1N1CCC(C(CC#N)n2cc(-c3ncnc4[nH]ccc34)cn2)CC1` (stereo not shown) [Example 154, 3-(4-(7H-pyrrolo[2,3-d]pyrimidin-4-yl)-1H-pyrazol-1-yl)-3-(1-(6-(2,6-difluorophenylamino)-5-methylpyrimidin-4-yl)piperidin-4-yl)propanenitrile], the IC50 in assay [1] was less than 20 nM; at Jak2 (a.a. 828-1132), 50 to 100 nM.

`Cc1c(Nc2ccc(F)cc2F)ncnc1N1CCC(C(CC#N)n2cc(-c3ncnc4[nH]ccc34)cn2)CC1` (stereo not shown) [Example 155, 3-(4-(7H-pyrrolo[2,3-d]pyrimidin-4-yl)-1H-pyrazol-1-yl)-3-(1-(6-(2,4-difluorophenylamino)-5-methylpyrimidin-4-yl)piperidin-4-yl)propanenitrile]: the IC50 in assay [1] was less than 20 nM; on Jak2 (a.a. 828-1132), more than 100 nM.
